# Results published in patent US8937039B2, “Peptide-based peroxidase inhibitors and methods of using same” (The Medical College of Wisconsin, Inc., priority 2009, dated 2015).
# Residues, ends and D or L forms follow the SMILES beside them.
# Key:
# SCD mice [1] = test: Vasodilatation of pressurized facialis arteries from SCD mice treated in vivo; design: species or system mouse; details: KYC, three weeks
# Experimental: Murine Model of Sickle Cell Disease. Mice treated with KYC in vivo. SCD mice were treated with KYC (intraperitoneal injection: IP 0.3 mg/kg/d) or with PBS (IP 100 μL) for 3 weeks. Anesthesia was induced with Ketamine (100 mg/kg)+Xylazine (10 mg/kg) cocktail (ip) and then sacrificed by exsanguination. Facialis arteries were atraumatically dissected and maintained in cooled MOPS solution (in mM: NaCl 145, KCL 4.7, CaCl2 2, NaH2PO4 1.2, MgSO4, 1.2, pyruvate 2, EDTA 0.02, MOPS 3.0, and glucose 5.0, at pH 7.4). Vessels were then submerged in a MOPS bath, mounted on MOPS-containing glass capillary tubes, internally pressurized (60 mmHg), and warmed to 37° C. Internal vascular diameters were measured with a calibrated video-microscope (Boeckeler). After the vessel was allowed to acclimate to 37° C. (approximately 30 min), the diameter was measured and recorded (Dmax). […] A control dose-response curve using acetylcholine (ACh, 10^−7-10^−4 M) was performed and vessel diameter recorded. […] Vasodilation to papaverine ([…]) was determined after all treatments to ensure smooth muscle viability. Vasodilation was calculated as a percent of maximal vessel diameter change.
# Vasodilatation. […] Physiological responses to increasing concentrations of acetylcholine (ACh) were determined by videomicroscopy as previously described.
# SCD mice [2] = test: Immunofluorescence of aortas of treated SCD mice (chlorotyrosine, MPO); type: in vivo, mouse; details: KYC IP 0.3 mg/kg/d, three weeks, vs non-treated SCD mice
# Experimental: Immunofluorescence Studies. In a separate study, SCD mice were treated with KYC (IP, 0.3 mg/kg/d). After three weeks treatment, mice were deeply anesthetized and euthanized by exsanguination. Thoracic and abdominal aortas were surgically removed and rinsed free of blood elements using ice cold PBS. Aortas were fixed, imbedded in paraffin, and sectioned.
# [3] = system: facialis arteries from non-treated SCD mice; test: Vasodilatation of facialis arteries from untreated SCD mice, peptide added ex vivo; design: species or system mouse; details: KYC 1.5 μg/ml, 20 min
# Experimental: For vessels treated with KYC (ex-vivo): Using untreated SCD mice, the vessels were isolated/cannulated the same as for the mice treated with KYC in vivo. After the control dose-response curve using acetylcholine (ACh, 10^−7-10^−4 M) and subsequent washing, the vessels were incubated with KYC 1.5 μg/ml for 20 minutes, pre-constricted, and exposed to acetylcholine (ACh, 10^−7-10^−4 M). Vasodilation to papaverine (2.0×10^−4 M) was determined after all treatments to ensure smooth muscle viability. Vasodilation was calculated as a percent of maximal vessel diameter change.
# MPO [4] = target: T1, MPO (Homo sapiens, UniProt P05164); test: MPO-mediated LDL Trp oxidation (Trp fluorescence); type: biochemical; design: purchased Lee Biosolutions (St. Louis, Mo.); details: MPO/H2O2/NO2−, 30 min, room temperature
# T1 sequence (P05164 49-745): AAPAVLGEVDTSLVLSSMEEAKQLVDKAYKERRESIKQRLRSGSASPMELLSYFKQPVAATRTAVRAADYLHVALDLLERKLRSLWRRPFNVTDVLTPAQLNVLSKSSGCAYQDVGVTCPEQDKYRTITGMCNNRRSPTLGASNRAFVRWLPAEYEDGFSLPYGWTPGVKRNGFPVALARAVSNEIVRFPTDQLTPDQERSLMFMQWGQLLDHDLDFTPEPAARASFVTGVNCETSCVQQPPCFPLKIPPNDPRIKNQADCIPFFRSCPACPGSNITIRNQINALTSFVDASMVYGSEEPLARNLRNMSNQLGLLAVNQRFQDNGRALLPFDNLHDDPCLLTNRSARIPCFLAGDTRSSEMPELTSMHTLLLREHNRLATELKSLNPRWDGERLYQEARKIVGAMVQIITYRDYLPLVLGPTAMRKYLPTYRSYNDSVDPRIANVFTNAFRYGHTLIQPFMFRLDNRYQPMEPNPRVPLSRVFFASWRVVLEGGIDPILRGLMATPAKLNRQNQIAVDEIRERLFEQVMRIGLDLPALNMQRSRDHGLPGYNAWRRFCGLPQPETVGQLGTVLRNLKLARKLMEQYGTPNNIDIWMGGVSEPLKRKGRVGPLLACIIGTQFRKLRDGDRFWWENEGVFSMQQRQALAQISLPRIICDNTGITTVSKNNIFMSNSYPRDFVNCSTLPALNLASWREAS
# Experimental: MPO-mediated LDL Trp Oxidation: Reaction mixtures containing LDL (0.15 mg/mL), NaNO2 (100 μM), H2O2 (100 μM), MPO (20 nM) and increasing concentrations of KYC in a phosphate buffer (100 mM, pH 7.4) containing DTPA (100 μM) were incubated at room temperature for 30 min. Reactions were stopped by addition of catalase (2,000 units/mL) and the oxidation of Trp in LDL was determined by measuring changes in the intrinsic fluorescence of Trp (Ex 294 nm/Em 345 nm) using a LC-50 fluorometer (Perkin Elmer, Waltham Mass.).
# MPO [5] = target: T1, MPO; test: MPO-mediated LDL malondialdehyde (MDA) formation; type: biochemical; design: purchased Lee Biosolutions (St. Louis, Mo.); details: increasing concentrations; 37° C., 4 h
# Experimental: MPO-mediated LDL Malondialdehyde (MDA) Formation: Reaction mixtures contained LDL (0.5 mg/mL), NaNO2 (50 μM), H2O2 (50 μM), MPO (50 nM) and increasing concentrations of KYC in a phosphate buffer (100 mM, pH 7.4) containing DTPA (100 μM). After incubation at 37° C. for 4 h, the reactions were stopped by addition of catalase (2,000 units/mL). The formation of MDA was determined according to a published procedure. Briefly, incubation mixtures (containing 25 mM BHT) were adjusted to pH 1.5 and incubated at 60° C. for 80 min to hydrolyze the Schiff Bases formed from MDA and protein. The samples were mixed with 3-fold volume of N-methyl-2-phenylindole (13.4 mM in acetonitrile/methanol (3:1)). After centrifugation (13000 g, 5 min) 330 μL of the supernatants were mixed with 57.5 μL of concentrated HCl and incubated at 45° C. for another 60 min. Finally, after centrifugation (13000 g, 5 min), total MDA in the samples was determined from the absorbance at 586 nm using a UV-Vis spectrophotometer (Agilent Model 8453).
compound,measurement,setting,value
"CC(=O)N[C@@H](CCCCN)C(=O)N[C@@H](Cc1ccc(O)cc1)C(=O)N[C@@H](CS)C(N)=O [KYC, N-acetyl Lysyltyrosylcysteine Amide] (Ac-Lys-Tyr-Cys-NH2)",Endothelium- and eNOS-dependent vasodilatation (in words),SCD mice [1],dramatically increases
same,Chlorotyrosine levels in aortas (in words),SCD mice [2],reduced
same,MPO levels in aortas (in words),SCD mice [2],reduced
same,"Vasodilatation in response to ACh, peptide added to vessel bath (in words)",[3],did not increase vasodilatation
same,MPO-dependent oxidation of Trp residues in LDL (in words),MPO [4],protected the Trp residues
same,MPO-mediated MDA formation in LDL (in words),MPO [5],dose-dependently inhibited
